The structures appear in SMILES notation.

Sequence of FGFR3 enzyme (P22607 23-806): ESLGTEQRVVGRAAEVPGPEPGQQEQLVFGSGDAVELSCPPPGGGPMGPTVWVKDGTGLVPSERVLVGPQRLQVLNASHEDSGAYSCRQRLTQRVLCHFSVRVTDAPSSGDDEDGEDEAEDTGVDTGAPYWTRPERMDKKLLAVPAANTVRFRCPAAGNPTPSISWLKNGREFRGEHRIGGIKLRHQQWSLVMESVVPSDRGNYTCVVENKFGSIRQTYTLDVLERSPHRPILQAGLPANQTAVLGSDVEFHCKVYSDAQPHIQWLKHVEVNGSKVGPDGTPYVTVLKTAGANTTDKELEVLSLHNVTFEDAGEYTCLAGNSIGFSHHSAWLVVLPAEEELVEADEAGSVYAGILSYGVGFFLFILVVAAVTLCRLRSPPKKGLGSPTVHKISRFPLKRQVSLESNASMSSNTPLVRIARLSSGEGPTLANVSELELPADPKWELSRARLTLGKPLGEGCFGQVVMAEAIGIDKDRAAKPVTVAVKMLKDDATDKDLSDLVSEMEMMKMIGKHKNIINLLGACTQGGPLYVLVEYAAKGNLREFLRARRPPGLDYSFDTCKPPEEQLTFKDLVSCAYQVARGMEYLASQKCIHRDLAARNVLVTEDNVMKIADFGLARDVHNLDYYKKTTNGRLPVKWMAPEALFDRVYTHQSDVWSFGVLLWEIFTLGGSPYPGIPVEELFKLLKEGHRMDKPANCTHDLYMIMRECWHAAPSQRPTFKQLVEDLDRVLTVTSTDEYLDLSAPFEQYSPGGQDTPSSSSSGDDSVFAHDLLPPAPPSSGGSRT

The experiment concerns the target FGFR3 enzyme (Homo sapiens (Human), UniProt P22607). In words: FGFR Enzymatic Assay (peptide phosphorylation, FRET). Format: biochemical. The conditions noted are these: pre-incubated for 4 hours; ATP 140 μM; 25° C. for 1 hr. As to the method: The inhibitor potency of the exemplified compounds was measured in an enzyme assay that measures peptide phosphorylation using FRET measurements to detect product formation. Inhibitors were serially diluted in DMSO and a volume of 0.5 μL was transferred to the wells of a 384-well plate. For FGFR3, a 10 μL volume of FGFR3 enzyme (Millipore) diluted in assay buffer (50 mM HEPES, 10 mM MgCl2, 1 mM EGTA, 0.01% Tween-20, 5 mM DTT, pH 7.5) was added to the plate and pre-incubated for a time between 5-10 minutes and up to 4 hours. Appropriate controls (enzyme blank and enzyme with no inhibitor) were included on the plate. The assay was initiated by the addition of a 10 μL solution containing biotinylated EQEDEPEGDYFEWLE peptide substrate (SEQ ID NO: 1) and ATP (final concentrations of 500 nM and 140 μM respectively) in assay buffer to the wells. The plate was incubated at 25° C. for 1 hr. The reactions were ended with the addition of 10 μL/well of quench solution (50 mM Tris, 150 mM NaCl, 0.5 mg/mL BSA, pH 7.8; 30 mM EDTA with Perkin Elmer Lance Reagents at 3.75 nM Eu-antibody PY20 and 180 nM APC-Streptavidin). The plate was allowed to equilibrate for ˜1 hr before scanning the wells on a PheraStar plate reader (BMG Labtech).
GraphPad prism3 was used to analyze the data. The IC50 values were derived by fitting the data to the equation for a sigmoidal dose-response with a variable slope. Y=Bottom+(Top−Bottom)/(1+10^((LogIC50−X)*HillSlope)) where X is the logarithm of concentration and Y is the response.
Table 1 provides IC50 data for compounds of the invention assayed in the FGFR Enzymatic Assay after dilution in assay buffer, added to the plate and pre-incubated for 4 hours. The symbol: “+” indicates an IC50 less than 10 nM; “++” indicates an IC50 greater than or equal to 10 nM but less than 30 nM; “+++” indicates an IC50 greater than or equal to 30 nM but less than 200 nM; and “++++” indicates an IC50 greater than or equal to 200 nM.
`CC(C)C1C(=O)N(C)CCN1c1ccc2[nH]nc(-c3ccc(N4CCN(C)CC4)c(F)c3)c2n1` (centres unmarked) [Example 18, 4-(3-(3-Fluoro-4-(4-methylpiperazin-1-yl)phenyl)-1H-pyrazolo[4,3-b]pyridin-5-yl)-3-isopropyl-1-methylpiperazin-2-one]: the concentration for half-maximal inhibition (IC50) (in general, the midpoint of a concentration-inhibition curve) was less than 10 nM.
`Cc1cc2[nH]nc(-c3cnn(C)c3)c2nc1N1CCN(C)C(=O)C1C` (centres unmarked) [Example 22, 1,3-Dimethyl-4-(6-methyl-3-(1-methyl-1H-pyrazol-4-yl)-1H-pyrazolo[4,3-b]pyridin-5-yl)piperazin-2-one] came in with an IC50 of 30 to 200 nM.
On to `CC(c1ccccc1)C1C(=O)N(C)CCN1c1ccc2[nH]nc(-c3cnn(C)c3)c2n1` (centres unmarked) [Example 12, 1-Methyl-4-(3-(1-methyl-1H-pyrazol-4-yl)-1H-pyrazolo[4,3-b]pyridin-5-yl)-3-(1-phenylethyl)piperazin-2-one], for which the IC50 is less than 10 nM.
`Cn1cc(-c2n[nH]c3ccc(N4CCn5cnc(C(F)(F)F)c5C4)nc23)cn1` [Example 2, 3-(1-Methyl-1H-pyrazol-4-yl)-5-(1-(trifluoromethyl)-5,6-dihydroimidazo[1,5-a]pyrazin-7(8H)-yl)-1H-pyrazolo[4,3-b]pyridine] had a half-inhibitory concentration (IC50) of less than 10 nM.
Compound `CCC1C(=O)N(C)CCN1c1ccc2[nH]nc(-c3cnn(C)c3)c2n1` (centres unmarked) [Example 6, 3-Ethyl-1-methyl-4-(3-(1-methyl-1H-pyrazol-4-yl)-1H-pyrazolo[4,3-b]pyridin-5-yl)piperazin-2-one] displayed an IC50 of less than 10 nM.
For `CN1CCN(c2ccc3[nH]nc(-c4cnn(C)c4)c3n2)C(Cc2ccncc2)C1=O` (centres unmarked) [Example 11, 1-Methyl-4-(3-(1-methyl-1H-pyrazol-4-yl)-1H-pyrazolo[4,3-b]pyridin-5-yl)-3-(pyridin-4-ylmethyl)piperazin-2-one], the concentration for half-maximal inhibition (IC50) is no less than 200 nM.
With `CN1CC2CCC(C1=O)N2c1ccc2[nH]nc(-c3cnn(C)c3)c2n1` (centres unmarked) [Example 4, 3-Methyl-8-(3-(1-methyl-1H-pyrazol-4-yl)-1H-pyrazolo[4,3-b]pyridin-5-yl)-3,8-diazabicyclo[3.2.1]octan-2-one], the IC50 is less than 10 nM.
The compound `CC(C)C1C(=O)N(C)CCN1c1ccc2[nH]nc(-c3cc4cnccc4s3)c2n1` (centres unmarked) [Example 19, 3-Isopropyl-1-methyl-4-(3-(thieno[3,2-c]pyridin-2-yl)-1H-pyrazolo[4,3-b]pyridin-5-yl)piperazin-2-one] had an IC50 of less than 10 nM.
For the compound `CN1CCN(c2ccc3[nH]nc(-c4cnn(C)c4)c3n2)C(C2CCOCC2)C1=O` (centres unmarked) [Example 10, 1-Methyl-4-(3-(1-methyl-1H-pyrazol-4-yl)-1H-pyrazolo[4,3-b]pyridin-5-yl)-3-(tetrahydro-2H-pyran-4-yl)piperazin-2-one], the half-inhibitory concentration (IC50) is no less than 200 nM.
Take `CN1CCN(c2ccc3[nH]nc(-c4cnn(C)c4)c3n2)C(CC2CC2)C1=O` (centres unmarked) [Example 9, 3-(Cyclopropylmethyl)-1-methyl-4-(3-(1-methyl-1H-pyrazol-4-yl)-1H-pyrazolo[4,3-b]pyridin-5-yl)piperazin-2-one]: the 50% inhibitory concentration (IC50) lay in the range of 10 to 30 nM.
For `CCC1(CC)C(=O)N(C)CCN1c1ccc2[nH]nc(-c3cnn(C)c3)c2n1` [Example 7, 3,3-Diethyl-1-methyl-4-(3-(1-methyl-1H-pyrazol-4-yl)-1H-pyrazolo[4,3-b]pyridin-5-yl)piperazin-2-one], the IC50 lay within 10 to 30 nM.
Compound `COc1cc2[nH]nc(-c3cnn(C)c3)c2nc1N1CCN(C)C(=O)C1C` (centres unmarked) [Example 24, 4-(6-Methoxy-3-(1-methyl-1H-pyrazol-4-yl)-1H-pyrazolo[4,3-b]pyridin-5-yl)-1,3-dimethylpiperazin-2-one] returned an IC50 of 30 to 200 nM.
As for `CC1C(=O)N(C)CCN1c1nc2c(-c3cnn(C)c3)n[nH]c2cc1C#N` (centres unmarked) [Example 23, 5-(2,4-Dimethyl-3-oxopiperazin-1-yl)-3-(1-methyl-1H-pyrazol-4-yl)-1H-pyrazolo[4,3-b]pyridine-6-carbonitrile], the figure is 30 to 200 nM; as for `CN1CCN(c2ccc3[nH]nc(-c4cnn(C)c4)c3n2)C(Cc2ccccc2)C1=O` (centres unmarked) [Example 8, 3-Benzyl-1-methyl-4-(3-(1-methyl-1H-pyrazol-4-yl)-1H-pyrazolo[4,3-b]pyridin-5-yl)piperazin-2-one], 10 to 30 nM.
The compound `CC(C)C1C(=O)N(C)CCN1c1ccc2[nH]nc(-c3cnn(C)c3)c2n1` (centres unmarked) [Example 5, 3-Isopropyl-1-methyl-4-(3-(1-methyl-1H-pyrazol-4-yl)-1H-pyrazolo[4,3-b]pyridin-5-yl)piperazin-2-one] came in with an IC50 of less than 10 nM.
To `CC(C)C1C(=O)N(C)CCN1c1ccc2[nH]nc(-c3cnn(CCN4CCOCC4)c3)c2n1` (centres unmarked) [Example 17, 3-Isopropyl-1-methyl-4-(3-(1-(2-morpholinoethyl)-1H-pyrazol-4-yl)-1H-pyrazolo[4,3-b]pyridin-5-yl)piperazin-2-one] belongs 10 to 30 nM.
Compound `CC1C(=O)N(C)CCN1c1nc2c(-c3cnn(C)c3)n[nH]c2cc1-c1ccoc1` (centres unmarked) [Example 25, 4-(6-(Furan-3-yl)-3-(1-methyl-1H-pyrazol-4-yl)-1H-pyrazolo[4,3-b]pyridin-5-yl)-1,3-dimethylpiperazin-2-one] came in with an IC50 of 30 to 200 nM.
To `CC1C(=O)N(C)CCN1c1nc2c(-c3cnn(C)c3)n[nH]c2cc1Cl` (centres unmarked) [Example 21, 4-(6-Chloro-3-(1-methyl-1H-pyrazol-4-yl)-1H-pyrazolo[4,3-b]pyridin-5-yl)-1,3-dimethylpiperazin-2-one] belongs 10 to 30 nM.
Compound `CN1CCN(c2ccc3[nH]nc(-c4cnn(C)c4)c3n2)C(C2CC2)C1=O` (centres unmarked) [Example 13, 3-Cyclopropyl-1-methyl-4-(3-(1-methyl-1H-pyrazol-4-yl)-1H-pyrazolo[4,3-b]pyridin-5-yl)piperazin-2-one] had a 50% inhibitory concentration (IC50) of less than 10 nM.
As to `CC1CN(c2ccc3[nH]nc(-c4cnn(C)c4)c3n2)C(C)C(=O)N1C` (centres unmarked) [Example 15, 1,3,6-Trimethyl-4-(3-(1-methyl-1H-pyrazol-4-yl)-1H-pyrazolo[4,3-b]pyridin-5-yl)piperazin-2-one], the IC50 was less than 10 nM.
Turning to `Cn1cc(-c2n[nH]c3ccc(N4CCCn5nccc54)nc23)cn1` [Example 3, 5-(6,7-Dihydropyrazolo[1,5-a]pyrimidin-4(5H)-yl)-3-(1-methyl-1H-pyrazol-4-yl)-1H-pyrazolo[4,3-b]pyridine], the IC50 is no less than 200 nM.
As for `CC1C(=O)N(C2CC2)CCN1c1ccc2[nH]nc(-c3cnn(C)c3)c2n1` (centres unmarked) [Example 14, 1-Cyclopropyl-3-methyl-4-(3-(1-methyl-1H-pyrazol-4-yl)-1H-pyrazolo[4,3-b]pyridin-5-yl)piperazin-2-one], the figure is 10 to 30 nM; as for `Cn1cc(-c2n[nH]c3ccc(N4CCCC(O)C4)nc23)cn1` (centres unmarked) [Example 1, 1-(3-(1-Methyl-1H-pyrazol-4-yl)-1H-pyrazolo[4,3-b]pyridin-5-yl)piperidin-3-ol], no less than 200 nM; as for `CC(C)C1C(=O)N(C)CCN1c1ccc2[nH]nc(-c3cn(C)nn3)c2n1` (centres unmarked) [Example 20, 3-Isopropyl-1-methyl-4-(3-(1-methyl-1H-1,2,3-triazol-4-yl)-1H-pyrazolo[4,3-b]pyridin-5-yl)piperazin-2-one], 30 to 200 nM.
To `CC1C(=O)N(C)CCN1c1nc2c(-c3cnn(C)c3)n[nH]c2cc1Cc1ccccc1` (centres unmarked) [Example 26, 4-(6-Benzyl-3-(1-methyl-1H-pyrazol-4-yl)-1H-pyrazolo[4,3-b]pyridin-5-yl)-1,3-dimethylpiperazin-2-one] belongs 30 to 200 nM; to `CC(C)C1C(=O)N(C)CCN1c1ccc2[nH]nc(-c3cnn(Cc4cccnc4)c3)c2n1` (centres unmarked) [Example 16, 3-Isopropyl-1-methyl-4-(3-(1-(pyridin-3-ylmethyl)-1H-pyrazol-4-yl)-1H-pyrazolo[4,3-b]pyridin-5-yl)piperazin-2-one], less than 10 nM.

Source of the values: patent publication US11591329B2, “Bicyclic heterocycles as FGFR inhibitors” (Incyte Corporation, priority 2019, dated 2023).
